Data published in ChEMBL document CHEMBL4184156, “Repurposing Hsp90 inhibitors as antibiotics targeting histidine kinases” (Bioorg Med Chem Lett, 2017).
In brackets after ≈: the same amount, converted by molar mass. Activity calls are given as the source filed them. The rule behind the calls is not given here.

Tests used:
[1] = target: T1, Cell cycle histidine kinase CckA (Caulobacter vibrioides) (UniProt Q9X688); assay: Binding affinity to recombinant Caulobacter vibrioides cell cycle histidine kinase CckA delta 3 mutant DHp domain (190 to 562 residues) expressed in Escherichia coli assessed as change in metlting temperature at 30 uM after 2 mins by SYPRO orange dye based DSF assay
T1 sequence (whole entry): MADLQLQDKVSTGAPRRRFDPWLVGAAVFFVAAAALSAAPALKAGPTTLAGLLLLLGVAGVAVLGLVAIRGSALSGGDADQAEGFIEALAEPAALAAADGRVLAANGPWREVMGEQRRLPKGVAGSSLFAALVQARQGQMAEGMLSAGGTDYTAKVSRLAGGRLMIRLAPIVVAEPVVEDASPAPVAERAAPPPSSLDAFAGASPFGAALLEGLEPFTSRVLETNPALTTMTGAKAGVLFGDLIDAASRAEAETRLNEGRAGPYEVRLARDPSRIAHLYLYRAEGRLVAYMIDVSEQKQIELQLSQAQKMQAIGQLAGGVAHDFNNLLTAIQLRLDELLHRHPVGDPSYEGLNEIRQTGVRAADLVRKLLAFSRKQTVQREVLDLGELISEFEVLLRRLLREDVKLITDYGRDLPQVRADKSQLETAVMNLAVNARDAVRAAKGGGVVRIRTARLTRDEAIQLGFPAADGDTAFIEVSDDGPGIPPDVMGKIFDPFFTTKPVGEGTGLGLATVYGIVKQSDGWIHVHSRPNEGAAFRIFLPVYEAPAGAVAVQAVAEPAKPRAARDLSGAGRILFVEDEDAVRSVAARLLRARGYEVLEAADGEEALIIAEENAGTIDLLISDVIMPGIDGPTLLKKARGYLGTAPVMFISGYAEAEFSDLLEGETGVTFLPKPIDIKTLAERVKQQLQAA

[2] = tested on: Caulobacter vibrioides; assay: Antibacterial activity against Caulobacter crescentus NA1000 after 24 hrs by broth dilution method; format: functional; settings: NA1000, 24 h
[3] = target: T2, Histidine protein kinase DivJ (Caulobacter vibrioides (strain ATCC 19089 / CB15) (Caulobactercrescentus)) (UniProt Q03228); assay: (§1) Inhibition of recombinant Caulobacter vibrioides N-terminal His6-tagged DHp-catalytic domain DivJ (188 to 585 residues) autophosphorylation expressed in Escherichia coli BL21(DE3) at 500 uM preincubated for 10 mins followed by [gamma-32P]-ATP addition after 15 mins by phosphotransferase dot blot assay relative to control; parameters: scale not given: the % may be the effect or the level left
T2 sequence (whole entry): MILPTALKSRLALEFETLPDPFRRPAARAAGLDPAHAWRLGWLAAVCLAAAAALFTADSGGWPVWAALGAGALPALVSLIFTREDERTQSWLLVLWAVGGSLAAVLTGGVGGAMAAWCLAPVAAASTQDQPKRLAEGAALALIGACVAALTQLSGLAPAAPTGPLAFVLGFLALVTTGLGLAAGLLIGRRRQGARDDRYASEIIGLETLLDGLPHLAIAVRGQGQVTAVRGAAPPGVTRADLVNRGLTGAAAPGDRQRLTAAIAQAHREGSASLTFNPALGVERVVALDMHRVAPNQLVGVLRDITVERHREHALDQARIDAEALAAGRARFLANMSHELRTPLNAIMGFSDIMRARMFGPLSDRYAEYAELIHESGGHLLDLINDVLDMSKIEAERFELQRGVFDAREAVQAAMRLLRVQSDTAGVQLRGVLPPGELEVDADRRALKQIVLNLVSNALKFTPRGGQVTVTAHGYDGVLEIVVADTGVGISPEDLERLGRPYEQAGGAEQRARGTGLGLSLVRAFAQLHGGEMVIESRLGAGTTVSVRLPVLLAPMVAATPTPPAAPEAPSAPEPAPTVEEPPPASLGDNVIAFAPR

[4] = target: T3, Virulence sensor histidine kinase PhoQ (Salmonella typhimurium (strain LT2 / SGSC1412 / ATCC 700720)) (UniProt P0DM80); assay: as §1, with “Salmonella typhimurium” for “Caulobacter vibrioides”, “His6-SUMO-tagged” for “His6-tagged”, “PhoQ (257” for “DivJ (188”, “487” for “585”, “30” for “15”; parameters: scale not given: the % may be the effect or the level left; settings: Salmonella enterica subsp. enterica serovar Typhimurium
T3 sequence (whole entry): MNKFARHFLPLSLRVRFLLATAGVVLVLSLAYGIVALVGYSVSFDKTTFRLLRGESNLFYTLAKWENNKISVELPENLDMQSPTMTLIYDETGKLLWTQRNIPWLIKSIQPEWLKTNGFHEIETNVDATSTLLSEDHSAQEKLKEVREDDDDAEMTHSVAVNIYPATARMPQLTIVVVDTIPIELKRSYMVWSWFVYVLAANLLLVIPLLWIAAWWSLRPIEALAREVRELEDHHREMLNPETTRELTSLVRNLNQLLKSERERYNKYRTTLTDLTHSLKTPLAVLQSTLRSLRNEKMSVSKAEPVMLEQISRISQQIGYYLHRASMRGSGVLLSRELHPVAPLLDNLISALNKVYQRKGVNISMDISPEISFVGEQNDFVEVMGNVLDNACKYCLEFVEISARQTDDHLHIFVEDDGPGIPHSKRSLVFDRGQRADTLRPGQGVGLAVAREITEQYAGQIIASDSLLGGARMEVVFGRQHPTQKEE

[5] = tested on: Escherichia coli; assay: Antibacterial activity against Escherichia coli DC2 after 24 hrs by broth dilution method; format: functional; settings: DC2, 24 h
[6] = tested on: Bacillus subtilis; assay: Antibacterial activity against Bacillus subtilis YB886 after 24 hrs by broth dilution method; format: functional; settings: YB886, 24 h
[7] = target: Cell cycle histidine kinase CckA (Caulobacter vibrioides, UniProt Q9X688); assay: Inhibition of recombinant Caulobacter vibrioides cell cycle histidine kinase CckA deltaTM mutant DHp domain (70 to 691 residues) expressed in Escherichia coli in presence of varying levels of ATP measured every 60 secs for 2 hrs by PK/LDH enzyme coupled assay
[8] = Hemolytic activity against sheep RBC at 0.5 mM after 30 mins relative to control; format: ADME, cell-based, Ovis aries, Erythrocyte; settings: sheep red blood cells (erythrocytes), read-out: Activity
[9] = target: T4, Virulence sensor histidine kinase PhoQ (Salmonella typhimurium (strain LT2 / SGSC1412 / ATCC 700720), UniProt P0DM80); assay: (§2) Inhibition of recombinant Salmonella typhimurium N-terminal His6-SUMO-tagged DHp-catalytic domain PhoQ (257 to 487 residues) autophosphorylation expressed in Escherichia coli BL21 (DE3) preincubated for 10 mins followed by [gamma-32P]-ATP addition after 30 mins by phosphotransferase dot blot assay; parameters: species or system Salmonella enterica subsp. enterica serovar Typhimurium
T4 sequence (P0DM80 whole entry): T3 sequence (whole entry)

[10] = target: T1, Cell cycle histidine kinase CckA (Caulobacter vibrioides); assay: Inhibition of recombinant Caulobacter vibrioides cell cycle histidine kinase CckA deltaTM mutant DHp domain (70 to 691 residues) expressed in Escherichia coli at 250 uM in presence of varying levels of ATP measured every 60 secs for 2 hrs by PK/LDH enzyme coupled assay relative to control
[11] = target: T3, Virulence sensor histidine kinase PhoQ (Salmonella typhimurium (strain LT2 / SGSC1412 / ATCC 700720)); assay: Inhibition of recombinant Salmonella typhimurium N-terminal His6-SUMO-tagged PhoQ (257 to 487 residues) expressed in Escherichia coli BL21 (DE3) assessed as enzyme aggregation at 400 uM after 30 mins by native-PAGE analysis; settings: Salmonella enterica subsp. enterica serovar Typhimurium
[12] = target: T3, Virulence sensor histidine kinase PhoQ (Salmonella typhimurium (strain LT2 / SGSC1412 / ATCC 700720)); assay: as §2, with “(DE3) at 800 uM” for “(DE3)”, “assay relative to control” for “assay”; parameters: scale not given: the % may be the effect or the level left; settings: Salmonella enterica subsp. enterica serovar Typhimurium
[13] = tested on: Escherichia coli; assay: Antimicrobial activity against Escherichia coli DC2 after 20 hrs by Mueller-Hinton Broth microdilution method; format: functional; settings: DC2, 20 h
[14] = target: T5, Sensor protein kinase WalK family protein (Streptococcus pneumoniae PCS8203, UniProt A0A0H2UQD0); assay: Inhibition of Streptococcus pneumoniae VicK preincubated for 30 mins followed by [gamma-33P]ATP addition after 30 mins by SDS-PAGE method
T5 sequence (A0A0H2UQD0 whole entry): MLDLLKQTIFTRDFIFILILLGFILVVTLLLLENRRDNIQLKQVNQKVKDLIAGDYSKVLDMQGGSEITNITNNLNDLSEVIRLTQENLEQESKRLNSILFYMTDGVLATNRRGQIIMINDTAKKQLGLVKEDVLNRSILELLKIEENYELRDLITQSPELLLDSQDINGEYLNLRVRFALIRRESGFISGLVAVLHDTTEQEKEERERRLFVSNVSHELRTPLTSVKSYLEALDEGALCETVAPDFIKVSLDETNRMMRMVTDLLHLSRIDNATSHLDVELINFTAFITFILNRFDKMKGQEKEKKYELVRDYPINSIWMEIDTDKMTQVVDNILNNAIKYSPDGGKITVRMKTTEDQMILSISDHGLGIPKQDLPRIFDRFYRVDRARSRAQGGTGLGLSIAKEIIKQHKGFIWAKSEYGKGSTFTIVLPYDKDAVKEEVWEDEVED

[15] = tested on: Bacillus subtilis; assay: Antimicrobial activity against Bacillus subtilis 3610 after 20 hrs by Mueller-Hinton Broth microdilution method; format: functional; settings: subsp. subtilis str. NCIB 3610, 20 h
[16] = tested on: Staphylococcus epidermidis; assay: Antimicrobial activity against Staphylococcus epidermidis ATCC 35984 after 10 hrs; format: functional; settings: ATCC 35984, 10 h

SMILES	ΔTm [1]	MIC [2]	Activity [3]	Activity [4]	MIC [5]	MIC [6]	IC50 [7]	hemolysis at 0.5 h, 500 µM [8]	IC50 [9]	inhibition [10]	inhibition [11]	Activity [12]	MIC [13]	IC50 [14]	MIC [15]	MIC [16]
Cc1n[nH]c(-c2cc(Cl)c(O)cc2O)c1-c1ccccc1	4.5 °C	225 µM (≈ 67.7 µg/mL)	115%	45%	37.5 to 75 µM (≈ 11.3 to 22.6 µg/mL)	150 µM (≈ 45.1 µg/mL)										
CCc1cc(-c2n[nH]c(C)c2-c2ccc3c(c2)OCCO3)c(O)cc1O							28 to 30 µM	14%	261 µM							
COc1ccc(-c2c[nH]nc2-c2cc(Cl)c(O)cc2O)cc1	4.2 °C	225 µM (≈ 71.3 µg/mL)	112%	62%	37.5 µM (≈ 11.9 µg/mL)	150 µM (≈ 47.5 µg/mL)	32.7 µM	0%								
CCc1cc(-c2n[nH]c(C)c2-c2ccc(OC)cc2)c(O)cc1O	4.1 °C	225 µM (≈ 73 µg/mL)	118%	36%	75 µM (≈ 24.3 µg/mL)	112 µM (≈ 36.5 µg/mL)	18.6 µM	15%								
COc1ccc(-c2c(-c3ccc(O)cc3O)n[nH]c2C)cc1	2.5 °C	> 300 µM	117%	76%	75 to 150 µM (≈ 22.2 to 44.4 µg/mL)	> 300 µM	46 µM	2%								
COc1c(C)cnc(Cn2cnc3c(Cl)nc(N)nc32)c1C [BIIB021]	0.7 °C	> 300 µM	128%	87%	> 300 µM	> 300 µM		6%		87%						
COc1ccc(-c2c[nH]nc2-c2ccc(O)cc2O)cc1	3.5 °C	> 300 µM	85%	87%	37.5 to 112 µM (≈ 10.6 to 31.8 µg/mL)	> 300 µM	56.9 µM	3%								
Cc1[nH]nc(-c2cc(Cl)c(O)cc2O)c1-c1ccc2c(c1)OCCO2	5.3 °C	225 µM (≈ 80.7 µg/mL)	113%	35%	75 µM (≈ 26.9 µg/mL)	112 to 150 µM (≈ 40.4 to 53.8 µg/mL)	11.2 to 28 µM	2%	270 µM		inactive					
Cc1[nH]nc(-c2cc(Cl)c(O)cc2O)c1-c1ccccc1							17.5 µM	1%								
Oc1cc(O)c(-c2[nH]ncc2-c2ccc3c(c2)OCCO3)cc1Cl	3.3 °C	150 to 225 µM (≈ 51.7 to 77.6 µg/mL)	117%	63%	37.5 to 75 µM (≈ 12.9 to 25.9 µg/mL)	112 to 225 µM (≈ 38.8 to 77.6 µg/mL)					inactive	48%				
Oc1cc(O)c(-c2n[nH]cc2-c2ccccc2)cc1Cl	3.5 °C	150 to 225 µM (≈ 43 to 64.5 µg/mL)	92%	63%	37.5 µM (≈ 10.8 µg/mL)	225 µM (≈ 64.5 µg/mL)	33.6 µM	0%								
CN(C)c1cc2c(cc1Sc1nc3c(N)nccc3n1CCNCC(C)(C)C)OCO2 [CUDC-305]	0.4 °C	> 300 µM	96%	110%	4.7 to 75 µM (≈ 2.08 to 33.2 µg/mL)	> 300 µM		3%		79%						
Oc1cc(O)c(-c2n[nH]cc2-c2ccc3c(c2)OCCO3)cc1Cl							32.3 to 44 µM	1%								
CCNC(=O)c1noc(-c2cc(C(C)C)c(O)cc2O)c1-c1ccc(CN2CCOCC2)cc1 [LUMINESPIB]	1.8 °C	> 300 µM	109%	73%	37.5 to 75 µM (≈ 17.5 to 34.9 µg/mL)	> 300 µM	7.3 to 28 µM	1%			inactive	56%				
Nc1nc2ccc(Oc3ccc4nc(N)sc4c3)cc2s1													32 to 64 µg/mL (≈ 102 to 204 µM)	75 µM	49 to 64 µg/mL (≈ 156 to 204 µM)	
CC(C)NCCCn1c(Sc2cc3c(cc2I)OCO3)nc2c(N)ncnc21 [PU-H71]	0.5 °C	> 300 µM	122%	103%	75 to 225 µM (≈ 38.4 to 115 µg/mL)	> 300 µM		1%		61%						
Nc1ncnc2c1ncn2[C@@H]1O[C@H](COP(=O)(O)OP(=O)(O)NP(=O)(O)O)[C@@H](O)[C@H]1O	3.5 °C															
O=C(O)c1ccc(-c2ccc(/C=C3\S/C(=N\c4ccccc4)N(c4ccc(F)cc4)C3=O)s2)cc1																0.75 µg/mL (≈ 1.5 µM)
